9 compounds from PubChem BioAssay (NCI) can be followed below.

Common to all, as to test: inhibition of tumour cell growth, NCI panel, 48 h
The test system of test [1] is DU-145 prostate.
Test [2] concerns M14 melanoma.
Test [3] relates to SK-MEL-28 melanoma.
For test [4], the system named is HL-60(TB) leukemia.
Test [5] relates to MOLT-4 leukemia.
The test system of test [6] is COLO 205 colon.
The subject of test [7] is NCI-H226 lung.
Test [8] deals with OVCAR-5 ovarian.

Structures are written as SMILES.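 Five concentrations, 48 hours, 96-well plates. GI50: concentration for 50% inhibition of growth. TGI: concentration producing complete growth inhibition.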 Where a SMILES comes first, the peptide text is derived from it. Bridges are numbered along the chain shown (N, C = ends). [ ]: non-standard residue; d: D form. The star is where a group is joined. ξ: configuration not given here. ξDab(CH2SO3H) = NC(CCNCS(=O)(=O)O)C(=O)O; Heptanoyl(6-Me) = CC(C)CCCCC(=O)*; Dab = NCC[CH](N)C(=O)O

In the case of `Cc1ccc(-c2cc3c4c(nc5ccccc53)C(=O)c3cccnc3-c4n2)cc1`, the GI50 in test [1] is 11.9 µM; in test [2], 4.37 µM; in test [3] it was 19.1 µM; in test [4], 1.35 µM; in test [5] it was 0.583 µM; in test [6], 16.3 µM. Besides, the GI50 in test [7] is 56.4 µM; in test [8] it was 23 µM. For the same compound, the TGI in test [1] is 24.5 µM; in test [2], 16.5 µM; in test [3], 41.1 µM; in test [4] it was above 100 µM; in test [5], above 100 µM; in test [6], 30.1 µM. Also, the TGI in test [7] is above 100 µM; in test [8], 60.9 µM.
As to `COc1cc(-c2oc3c(OC)cc(OC)c(O)c3c(=O)c2OC)cc(OC)c1OC`, the TGI in test [1], in test [2], in test [3], in test [4], in test [5] and in test [6] was above 100 µM each time. The TGI in test [7] and in test [8] was above 100 µM throughout.
Consider `CCC(C)C1NC(=O)C(CCNCS(=O)(=O)O)NC(=O)C(NC(=O)C(CCNCS(=O)(=O)O)NC(=O)C(NC(=O)C(CCNCS(=O)(=O)O)NC(=O)CCCCC(C)C)C(C)O)CCNC(=O)C(C(C)O)NC(=O)C(CCNCS(=O)(=O)O)NC(=O)C(CCNCS(=O)(=O)O)NC(=O)C(C(C)CC)NC1=O` (stereo not drawn) ({Heptanoyl(6-Me)}-[ξDab(CH2SO3H)]T[ξDab(CH2SO3H)][Dab][ξDab(CH2SO3H)]II[ξDab(CH2SO3H)][ξDab(CH2SO3H)]T; lactam 4-C; configuration not given here), for which the GI50 was 7.09 µM in test [1]; 5.72 µM in test [2]; 2.72 µM in test [3]; 5.23 µM in test [4]; 8.47 µM in test [5]; 3.26 µM in test [6]. For the same compound, the GI50 was 8.25 µM in test [7] and 24 µM in test [8]. The TGI was 23.2 µM in test [1]; 20.6 µM in test [2]; above 25 µM in test [3]; 16.9 µM in test [4]; above 25 µM in test [5]; 8.85 µM in test [6]. For the same compound, the TGI in test [7] and in test [8] was above 25 µM in each case.
Consider `CCOC(=O)c1cc(C(=O)c2cc(OC)c(OC)c(OC)c2)n2c1ccc1ccccc12`, for which the GI50 was 0.372 µM in test [1]; 0.137 µM in test [2]; 1.45 µM in test [3]; 0.338 µM in test [4]; 0.477 µM in test [5]; 0.26 µM in test [6]. Also, the GI50 in test [7] was 1.23 µM; in test [8], 0.539 µM. Further, the TGI was above 100 µM in test [1]; above 100 µM in test [2]; above 100 µM in test [3]; above 100 µM in test [4]; above 100 µM in test [5]; 1.94 µM in test [6]. The TGI in test [7] and in test [8] was above 100 µM in each case.
As to `CC(C)(C)[Si](C)(C)OC1[C@@H](O[Si](C)(C)C(C)(C)C)[C@@H](CNC(=O)NC(=O)CF)O[C@H]1n1cnc2c(NC(=O)Nc3ccccc3)ncnc21` (stereo partly drawn), the GI50 in test [1] was 17.7 µM; in test [2], 15.9 µM; in test [3], above 50 µM; in test [4] it was 17.4 µM; in test [5] it was 4.19 µM; in test [6] it was 7.66 µM. Also, the GI50 is 5.5 µM in test [7] and 15.9 µM in test [8]. For the same compound, the TGI in test [1] is above 50 µM; in test [2] it was above 50 µM; in test [3] it was above 50 µM; in test [4], above 50 µM; in test [5], 43.7 µM; in test [6] it was 18.4 µM. Moreover, the TGI in test [7] and in test [8] was above 50 µM each time.
For `C[C@@H]1CCC([C@@H](C)[C@H]2CC[C@H]3[C@@H]4CC[C@H]5C[C@@H](O)CC[C@]5(C)[C@H]4CC[C@]23C)=NC1`, the TGI in test [1] is above 100 µM; in test [2], above 48.9 µM; in test [3], above 77.3 µM; in test [4] it was above 21.2 µM; in test [5], above 66 µM; in test [6], above 53.2 µM. In addition, the TGI in test [7] and in test [8] was above 100 µM throughout.
As to `C[C@]12CC[C@@H]3c4cc(O)c(O)cc4CC[C@H]3[C@@H]1CC[C@@H]2O`, the GI50 in test [1] was 4.46 µM; in test [2] it was 1.35 µM; in test [3], 5.47 µM; in test [4], 2.33 µM; in test [5], 3.51 µM; in test [6] it was 28.9 µM. Also, the GI50 was 26.8 µM in test [7] and 25 µM in test [8]. Also, the TGI in test [1] was above 100 µM; in test [2] it was above 100 µM; in test [3] it was above 100 µM; in test [4], 24.7 µM; in test [5], 77.2 µM; in test [6], above 73.3 µM. The TGI in test [7] and in test [8] was above 100 µM in each case.
In the case of `O=C(/C(=C/c1ccc([N+](=O)[O-])cc1)SCc1ccc(Cl)cc1)c1ccc(F)cc1`, the GI50 in test [1] is 13.8 µM; in test [2] it was 3.38 µM; in test [3], 4.26 µM; in test [4], 2.82 µM; in test [5], 2.83 µM; in test [6], 3.8 µM. Also, the GI50 in test [7] was 9.67 µM; in test [8], 3 µM. The TGI in test [1] was above 57.3 µM; in test [2], 16.1 µM; in test [3] it was 16.2 µM; in test [4] it was 11.1 µM; in test [5], above 100 µM; in test [6], 14.9 µM. The values for the TGI in test [7] and in test [8] were above 41.6 µM and 12.1 µM, respectively.
As for `Cn1cc(C2=C(c3c4n(c5ccccc35)CCC(CN)C4)C(=O)NC2=O)c2ccccc21` (stereo not drawn), the GI50 in test [1] was 3.63 µM; in test [2], 3.46 µM; in test [3] it was 3.82 µM; in test [4] it was 4.13 µM; in test [5] it was 2.19 µM; in test [6] it was 1.63 µM. Moreover, the results for the GI50 in test [7] and in test [8] were 3.34 µM and 2.94 µM, respectively. For the same compound, the TGI in test [1] was 7.02 µM; in test [2] it was 7.58 µM; in test [3], 7.31 µM; in test [4] it was 8.77 µM; in test [5] it was 6.73 µM; in test [6] it was 5.15 µM. In addition, the TGI in test [7] is 11.1 µM; in test [8] it was 7.15 µM.
